Source: ChEMBL document CHEMBL1125867 (J Med Chem, 1991)

Tests used:
Dihydrofolate reductase = target: T1, Dihydrofolate reductase (Homo sapiens, UniProt P00374)
T1 sequence (P00374 whole entry): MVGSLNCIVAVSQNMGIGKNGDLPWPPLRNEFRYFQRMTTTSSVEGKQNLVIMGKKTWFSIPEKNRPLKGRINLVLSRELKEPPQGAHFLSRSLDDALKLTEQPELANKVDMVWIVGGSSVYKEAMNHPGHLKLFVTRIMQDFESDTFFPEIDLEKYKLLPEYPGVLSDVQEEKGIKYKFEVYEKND
Description: Compound was evaluated for Dihydrofolate Reductase (DHFR) inhibition

[1] = Compound was evaluated for cell growth inhibition of human (WI-L2) leukemic cells.; type: functional, cell-based; conditions: WIL2

SMILES	IC50 (Dihydrofolate reductase) [µM]	IC50 [1] [µM]
Cc1nc(N)c2nc(CN(C)c3ccc(C(=O)NC(CCC(=O)O)C(=O)O)cc3)cnc2n1 (stereo not drawn)	> 20	
Nc1nc(N)c2nc(CNc3ccc(C(=O)N[C@@H](CCC(=O)O)C(=O)O)cc3)cnc2n1 [AMINOPTERIN]		0.007
CN(Cc1cnc2ncnc(N)c2n1)c1ccc(C(=O)NC(CCC(=O)O)C(=O)O)cc1 (stereo not drawn)	6	
